Laboratory results from publication PMC10818931, “In Vitro Evaluation of Drug–Drug Interaction Potential of Epetraborole, a Novel Bacterial Leucyl-tRNA Synthetase Inhibitor” (Pharmaceuticals, 2024).

Legend:
[1] = molecular target: T1, OCT1 (Homo sapiens, UniProt O15245); assay: Uptake transporter inhibition in transfected HEK 293 or MDCK cells; format: in vitro ADME
T1 construct: expressed in transfected cells; host or cells: HEK 293 or MDCK
Method: (§1) Cell monolayers were preincubated (37 °C) for 15 to 30 min in a transport medium containing the target concentration of EBO or a specific inhibitor without substrate. Following the removal of preincubation solutions, appropriate working solutions containing EBO at the target concentration plus the probe substrate were added to the wells in triplicate. Separate sets of triplicate wells were designated for probe substrate only and probe substrate plus the specific inhibitors, to determine the maximal uptake rate and maximal inhibition of uptake, respectively. After incubation at 37 °C for each transporter, the working solution was removed from each well and the experiment was stopped by washing three times with cold (4 °C) DPBS. Depending on the substrate label, cells were either lysed for the analysis of total radioactivity (liquid scintillation counter) or LC-MS/MS methods. For measuring relative fluorescence (FLUOstar Galaxy, Cary, NC, USA), cells were not lysed.

[2] = molecular target: T2, OATP1B1 (Homo sapiens, UniProt Q9Y6L6); assay: as above; format: in vitro ADME
T2 construct: host or cells: MDCK
T2 sequence (Q9Y6L6 1-691): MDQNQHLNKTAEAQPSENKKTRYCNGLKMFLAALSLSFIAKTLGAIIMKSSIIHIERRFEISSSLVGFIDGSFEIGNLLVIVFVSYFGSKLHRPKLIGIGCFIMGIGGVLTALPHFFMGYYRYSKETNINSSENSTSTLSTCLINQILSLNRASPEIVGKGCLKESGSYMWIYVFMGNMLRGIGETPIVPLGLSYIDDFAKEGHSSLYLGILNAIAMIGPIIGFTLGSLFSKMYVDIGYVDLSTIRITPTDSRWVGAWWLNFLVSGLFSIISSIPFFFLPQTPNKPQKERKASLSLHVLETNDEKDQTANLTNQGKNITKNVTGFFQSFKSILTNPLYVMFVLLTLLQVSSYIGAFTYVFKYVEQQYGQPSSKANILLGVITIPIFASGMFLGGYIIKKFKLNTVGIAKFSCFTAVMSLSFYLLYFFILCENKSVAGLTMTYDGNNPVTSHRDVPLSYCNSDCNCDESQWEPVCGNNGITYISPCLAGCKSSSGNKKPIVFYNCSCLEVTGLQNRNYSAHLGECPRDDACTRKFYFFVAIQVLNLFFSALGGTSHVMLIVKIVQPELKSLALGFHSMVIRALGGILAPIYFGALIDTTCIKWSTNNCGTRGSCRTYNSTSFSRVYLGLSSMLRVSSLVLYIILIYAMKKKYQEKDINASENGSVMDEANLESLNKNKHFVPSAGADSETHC
Method: as §1

[3] = molecular target: T3, OCT2 (Homo sapiens, UniProt O15244); assay: as above; format: in vitro ADME
T3 construct: host or cells: MDCK
T3 sequence (O15244 1-555): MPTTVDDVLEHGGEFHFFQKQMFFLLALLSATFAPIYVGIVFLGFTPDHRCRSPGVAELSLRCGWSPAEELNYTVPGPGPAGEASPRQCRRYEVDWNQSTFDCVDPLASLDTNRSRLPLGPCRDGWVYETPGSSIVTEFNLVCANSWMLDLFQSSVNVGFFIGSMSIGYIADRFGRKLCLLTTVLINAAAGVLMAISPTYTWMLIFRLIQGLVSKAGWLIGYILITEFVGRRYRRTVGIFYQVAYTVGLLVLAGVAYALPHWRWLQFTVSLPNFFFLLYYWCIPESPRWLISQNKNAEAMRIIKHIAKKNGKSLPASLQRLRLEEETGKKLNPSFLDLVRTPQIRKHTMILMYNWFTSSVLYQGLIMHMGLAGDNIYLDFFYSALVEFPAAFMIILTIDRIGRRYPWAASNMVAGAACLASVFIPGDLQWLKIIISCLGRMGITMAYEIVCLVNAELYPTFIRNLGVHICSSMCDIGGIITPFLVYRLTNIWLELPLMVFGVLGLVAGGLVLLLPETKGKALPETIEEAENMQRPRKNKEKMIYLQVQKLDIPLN
Method: as §1

[4] = system: CYP3A4; assay: CYP mRNA induction in plated human hepatocytes (qPCR); settings: for Apparent Emax: EBO 0.3–100 µM, M3 1–250 µM; for EC50 at 2 days: human
Method: (§2) The induction potential of EBO and M3 on CYP1A2, CYP2B6, and 3A4 was evaluated by incubating the test articles with plated human hepatocytes from 3 individual donors (GKJ, ZEY, WKF) in triplicate according to WuXi AppTec (Cranbury, NJ, USA) SOP.
(§3) At the end of incubation, the RNA of human hepatocytes was isolated and the mRNA expression levels of CYP 1A2, 2B6, and 3A4 were evaluated by using real-time polymerase chain reaction (qPCR) after being reverse-transcribed (RT) to cDNA following manufacturer’s instruction (thermos Fisher Scientific (Waltham, MA, USA). On the last dosing day with EBO or M3, incubation samples were extracted in triplicate by the addition of ice-cold quench solutions at 0, 0.5, 1, 2, 4, 6, and 24 h after dosing and the extracted samples were analyzed using LC-MS/MS to determine the EBO or M3 concentration in each sample.

[5] = system: CYP1A2; assay: as above; settings: for Apparent Emax: CYP1A2 mRNA, EBO 0.3–100 µM, M3 1–250 µM
Method: as §2, §3

[6] = system: CYP2B6; assay: as above; settings: for Apparent Emax: CYP2B6 mRNA, EBO 0.3–100 µM, M3 1–250 µM
Method: as §2, §3

[7] = read-out: as an Inhibitor, IC50
[8] = at 100 µM, EBO 2 out of 3 donors, M3 1 out of 3 donors

T1 sequence (O15245 whole entry): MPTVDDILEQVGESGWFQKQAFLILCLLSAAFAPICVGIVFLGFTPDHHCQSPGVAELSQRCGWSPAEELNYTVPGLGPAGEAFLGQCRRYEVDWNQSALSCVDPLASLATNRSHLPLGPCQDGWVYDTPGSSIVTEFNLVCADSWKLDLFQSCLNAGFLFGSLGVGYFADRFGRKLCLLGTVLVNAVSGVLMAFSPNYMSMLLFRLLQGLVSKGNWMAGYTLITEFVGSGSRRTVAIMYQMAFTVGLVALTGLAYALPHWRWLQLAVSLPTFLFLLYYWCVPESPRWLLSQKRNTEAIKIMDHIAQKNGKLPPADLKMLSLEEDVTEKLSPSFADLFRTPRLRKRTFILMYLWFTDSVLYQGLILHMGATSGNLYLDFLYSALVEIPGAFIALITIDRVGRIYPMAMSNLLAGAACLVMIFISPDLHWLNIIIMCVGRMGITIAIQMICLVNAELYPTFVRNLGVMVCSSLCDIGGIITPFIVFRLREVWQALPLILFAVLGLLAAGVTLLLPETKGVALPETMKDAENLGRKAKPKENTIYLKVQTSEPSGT

SMILES	Apparent Emax ([4]; CYP3A4 mRNA, donor one) [Fold]	Apparent Emax ([4]; CYP3A4 mRNA, donor three) [Fold]	Apparent Emax ([4]; CYP3A4 mRNA, donor two) [Fold]	CYP3A4 mRNA expression induction [4, 8]	Apparent Emax ([5]; donor one) [Fold]	Apparent Emax ([5]; donor three) [Fold]	Apparent Emax ([5]; donor two) [Fold]	Apparent Emax ([6]; donor one) [Fold]	Apparent Emax ([6]; donor three) [Fold]	Apparent Emax ([6]; donor two) [Fold]	further results
NC[C@H]1OB(O)c2c(OCCC(=O)O)cccc21 [M3]	2.16	<2	<2	2.19 fold	<2	<2	<2	<2	<2	<2	IC50 [1, 7]: > 250 µM; IC50 [2, 7]: > 250 µM; IC50 [3, 7]: > 250 µM; CYP3A4 mRNA expression induction ([4]; at 250 µM, 1 out of 3 donors): 2.13 fold; EC50 at 2 days [4]: 32.4 µM
NC[C@H]1OB(O)c2c(OCCCO)cccc21 [EBO, Epetraborole]	>2.98	<2	>2.93	~ 3 fold	<2	<2	<2	<2	<2	>2.18	inhibition at 1000 µM ([1]; human, HEK 293 or MDCK cells transfected with OCT1, probe metformin, metformin transport, at 1000 µM (maximum tested)): 59%; inhibition at 500 µM ([2]; human, HEK 293 or MDCK cells transfected with OATP1B1, at 500 µM): 25%; inhibition at 1000 µM ([3]; human, probe metformin, metformin transport, at 1000 µM (maximum tested)): 20%; Inducer of CYP3A4 (in words) ([4]; hepatocytes): weak inducer; EC50 at 2 days ([4]; plated human hepatocytes): > 100 µM; EC50 ([4]; read-out: Apparent EC50, CYP3A4 mRNA, donor one): > 100 µM; Inducer of CYP1A2 mRNA (in words) ([5]; hepatocytes): not an inducer; CYP2B6 mRNA expression induction ([6]; at 100 µM, 1 out of 3 donors): 2.18 fold; Inducer of CYP2B6 (in words) ([6]; hepatocytes): weak inducer; EC50 at 2 days ([6]; human, plated human hepatocytes): > 100 µM
